The text below walks through data of US11542259B2, “Compounds for the treatment of kinase-dependent disorders” (Exelixis, Inc., priority 2018, dated 2023).

What all share (format): cell-based
In one assay the target is AXL (Homo sapiens (Human), UniProt P30530). Put plainly: AXL autophosphorylation ELISA in A-172 cells. Particulars: cellular, Gas6 stimulated. In a few lines: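 Serum-starved (24 h) A-172 glioblastoma cells pretreated 1 h with compounds (8-point curve, 0.3% DMSO), then stimulated 15 min with 1 μg/mL Gas6. Lysate phospho-AXL measured by sandwich ELISA against a phospho-AXL standard; IC50 from 4-parameter logistic fit between DMSO and reference-inhibitor controls.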
Background: ELISA stands for enzyme-linked immunosorbent assay.

Another assay addresses Met (Homo sapiens (Human), UniProt P08581). Put plainly: Met autophosphorylation ELISA in PC-3 cells. Particulars: cellular, HGF stimulated, read-out: c-Met IC50. The method, boiled down:
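Phospho-Met (panTyr) sandwich ELISA on lysates of PC-3 cells given 100 ng/mL HGF for 10 min after 1 h compound exposure (8-point curve, 0.3% DMSO) following 3 h serum starvation. Normalised to HGF-stimulated DMSO and reference-inhibitor wells; 4-parameter logistic IC50.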

In another assay the target is Mer (Homo sapiens (Human), UniProt Q12866). Kind of assay: Mer autophosphorylation ELISA in transient transfected 293A cells. Particulars: cellular, MERTK transfected 293A cells. The method, then: 293A cells (Thermo Fisher #R70507) were seeded at 1.5×10^6 cells/well onto 100 mm dish (Greiner #664169), in DMEM (Thermo Fisher #11995-040) containing 10% FBS (Thermo Fisher #26140-079), 1% MEM NEAA (Thermo Fisher #11140-050), 1% GlutaMax (Thermo Fisher #35050-061), and 1% Penicillin Streptomycin (Thermo Fisher #15140-122). 293A cells were incubated at 37° C., 5% CO2 for 24 h and then transfected with 6 μg MERTK DNA (Genecopoeia #EX-Z8208-M02) using TransIT LT1 transfection reagent (Mirus-Bio #MIR2305). After 24 h incubation, the transfected 293A cells were seeded at 1×10^5 cells/well onto 96-well plates (Corning #3904) in DMEM growth medium overnight. Test compounds were serially diluted to produce an 8-point dose curve in fresh serum-free medium to a final concentration of 0.3% DMSO (vehicle) and added to the cells and incubated for 1 h. Cells were then immediately lysed with 150 μL of cold 1× lysis buffer [20 mM Tris, 137 mM sodium chloride, 2 mM EDTA, 10% glycerol, 1% NP-40 alternative, 1 mM activated sodium orthovanadate, 1 mM PefaBloc SC (Sigma-Aldrich #11429868001), protease/phosphatase inhibitor tablet (Thermo Fisher #A32959)]. Lysates were clarified by centrifugation and 50 μL/well added into the human phospho-Mer DuoSet IC ELISA (R&D Systems #DYC2579-2). Assay was performed according to manufacturer's instructions and sample phospho-Mer concentrations were extrapolated using human phospho-Mer control (R&D Systems #841793) as a standard. Positive control wells (100% activity) contained DMSO-treated cell lysates. Negative control wells (0% activity) contained reference inhibitor-treated cell lysates. IC50 values were calculated by nonlinear regression analysis using a 4-parameter logistic curve fit in ActivityBase XE (IDBS).

The next assay concerns the target KDR (Homo sapiens (Human), UniProt P35968). Kind of assay: KDR autophosphorylation ELISA in HUVEC cells. Particulars: cellular, VEGF165 stimulated. In a few lines: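 HUVECs grown 24 h at 37 °C, then serum-starved 24 h, were preincubated 1 h with an 8-point compound series (0.3% DMSO) and stimulated with 100 ng/mL human VEGF165 for 5 min. Phospho-KDR in lysates was measured by sandwich ELISA against a phospho-KDR standard; IC50 from 4-parameter logistic fit.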

Counter-ions that a name gives are not always drawn.

Sequence of Mer (Q12866 21-999): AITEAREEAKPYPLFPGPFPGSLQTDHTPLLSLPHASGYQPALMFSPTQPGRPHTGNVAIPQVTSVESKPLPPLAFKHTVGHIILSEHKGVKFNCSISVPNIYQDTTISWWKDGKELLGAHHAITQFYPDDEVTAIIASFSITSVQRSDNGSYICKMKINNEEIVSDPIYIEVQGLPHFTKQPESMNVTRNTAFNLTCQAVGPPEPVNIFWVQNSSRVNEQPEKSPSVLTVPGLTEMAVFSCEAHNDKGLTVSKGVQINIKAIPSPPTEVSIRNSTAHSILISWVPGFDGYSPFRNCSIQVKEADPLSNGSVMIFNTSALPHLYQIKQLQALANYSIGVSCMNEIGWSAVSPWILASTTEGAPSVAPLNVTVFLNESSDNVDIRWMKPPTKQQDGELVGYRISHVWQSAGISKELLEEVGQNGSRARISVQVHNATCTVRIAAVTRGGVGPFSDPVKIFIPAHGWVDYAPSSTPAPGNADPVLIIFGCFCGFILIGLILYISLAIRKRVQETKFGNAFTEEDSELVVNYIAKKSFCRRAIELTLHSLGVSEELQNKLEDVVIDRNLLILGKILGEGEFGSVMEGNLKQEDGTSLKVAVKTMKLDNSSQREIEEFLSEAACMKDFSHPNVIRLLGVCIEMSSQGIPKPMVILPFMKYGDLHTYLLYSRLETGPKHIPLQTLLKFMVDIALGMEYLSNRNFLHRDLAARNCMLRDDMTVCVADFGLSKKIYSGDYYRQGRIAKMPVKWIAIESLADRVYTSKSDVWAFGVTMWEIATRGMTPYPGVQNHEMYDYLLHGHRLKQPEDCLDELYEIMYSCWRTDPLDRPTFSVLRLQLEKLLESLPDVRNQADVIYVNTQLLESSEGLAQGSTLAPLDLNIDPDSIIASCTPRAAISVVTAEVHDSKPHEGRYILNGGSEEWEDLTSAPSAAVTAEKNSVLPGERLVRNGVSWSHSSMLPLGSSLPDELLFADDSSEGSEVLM
Sequence of AXL (P30530 26-894): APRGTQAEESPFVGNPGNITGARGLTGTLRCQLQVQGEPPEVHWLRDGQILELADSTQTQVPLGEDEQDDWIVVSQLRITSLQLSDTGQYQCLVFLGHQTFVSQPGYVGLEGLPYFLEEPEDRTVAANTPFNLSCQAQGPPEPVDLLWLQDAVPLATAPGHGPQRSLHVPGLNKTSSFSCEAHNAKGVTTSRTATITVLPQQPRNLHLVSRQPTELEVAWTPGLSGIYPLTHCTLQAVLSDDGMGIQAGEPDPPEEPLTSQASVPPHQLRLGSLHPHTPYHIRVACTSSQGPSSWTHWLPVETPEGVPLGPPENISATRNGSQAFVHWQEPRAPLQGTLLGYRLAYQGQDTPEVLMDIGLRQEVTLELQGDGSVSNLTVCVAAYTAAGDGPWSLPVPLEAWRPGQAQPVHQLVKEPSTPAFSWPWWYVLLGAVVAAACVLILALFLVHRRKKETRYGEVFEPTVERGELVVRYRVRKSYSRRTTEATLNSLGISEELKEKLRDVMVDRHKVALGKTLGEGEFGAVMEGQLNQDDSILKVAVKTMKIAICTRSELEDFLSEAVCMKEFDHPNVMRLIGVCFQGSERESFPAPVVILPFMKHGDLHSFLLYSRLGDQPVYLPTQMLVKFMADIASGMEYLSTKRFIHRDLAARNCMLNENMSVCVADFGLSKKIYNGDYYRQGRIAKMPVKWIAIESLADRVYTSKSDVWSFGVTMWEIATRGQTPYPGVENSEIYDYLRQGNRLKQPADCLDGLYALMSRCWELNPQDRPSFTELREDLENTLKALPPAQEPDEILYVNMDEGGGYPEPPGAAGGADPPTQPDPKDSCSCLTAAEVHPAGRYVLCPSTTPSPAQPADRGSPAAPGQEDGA
Sequence of Met (P08581 25-1390): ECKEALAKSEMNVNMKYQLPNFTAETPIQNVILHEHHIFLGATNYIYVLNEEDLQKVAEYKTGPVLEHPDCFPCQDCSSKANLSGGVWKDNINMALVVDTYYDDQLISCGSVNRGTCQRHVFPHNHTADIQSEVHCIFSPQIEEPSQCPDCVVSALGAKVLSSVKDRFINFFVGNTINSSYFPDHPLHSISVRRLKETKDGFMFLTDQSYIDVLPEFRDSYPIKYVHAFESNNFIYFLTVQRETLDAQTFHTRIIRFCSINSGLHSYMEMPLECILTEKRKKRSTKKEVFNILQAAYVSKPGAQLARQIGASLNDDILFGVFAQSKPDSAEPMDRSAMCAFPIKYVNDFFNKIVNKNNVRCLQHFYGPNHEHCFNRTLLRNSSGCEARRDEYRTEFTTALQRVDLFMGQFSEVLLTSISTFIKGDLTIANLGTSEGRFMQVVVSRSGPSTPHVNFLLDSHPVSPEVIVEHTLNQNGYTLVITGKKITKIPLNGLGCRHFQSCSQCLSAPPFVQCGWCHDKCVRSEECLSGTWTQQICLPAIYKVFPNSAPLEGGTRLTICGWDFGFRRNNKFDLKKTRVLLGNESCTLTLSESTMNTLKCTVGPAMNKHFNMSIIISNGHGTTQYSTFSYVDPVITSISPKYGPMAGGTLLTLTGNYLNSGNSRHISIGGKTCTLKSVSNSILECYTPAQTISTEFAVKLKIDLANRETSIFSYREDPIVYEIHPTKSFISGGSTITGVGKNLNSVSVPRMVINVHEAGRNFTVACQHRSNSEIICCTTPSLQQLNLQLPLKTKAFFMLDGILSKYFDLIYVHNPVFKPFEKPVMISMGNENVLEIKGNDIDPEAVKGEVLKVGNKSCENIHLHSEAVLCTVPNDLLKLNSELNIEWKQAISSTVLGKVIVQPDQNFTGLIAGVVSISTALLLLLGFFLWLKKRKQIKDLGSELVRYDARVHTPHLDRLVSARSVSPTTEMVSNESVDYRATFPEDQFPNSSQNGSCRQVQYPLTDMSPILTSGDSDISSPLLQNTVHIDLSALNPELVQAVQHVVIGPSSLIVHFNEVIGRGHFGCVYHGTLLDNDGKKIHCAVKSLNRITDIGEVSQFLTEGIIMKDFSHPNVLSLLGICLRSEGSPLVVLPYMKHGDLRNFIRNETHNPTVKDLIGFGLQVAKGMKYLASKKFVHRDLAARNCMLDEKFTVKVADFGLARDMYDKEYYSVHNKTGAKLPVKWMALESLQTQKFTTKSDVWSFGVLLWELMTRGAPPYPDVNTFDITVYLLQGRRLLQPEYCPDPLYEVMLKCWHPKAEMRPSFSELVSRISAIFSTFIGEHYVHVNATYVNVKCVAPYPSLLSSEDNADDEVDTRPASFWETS
Sequence of KDR (P35968 20-1356): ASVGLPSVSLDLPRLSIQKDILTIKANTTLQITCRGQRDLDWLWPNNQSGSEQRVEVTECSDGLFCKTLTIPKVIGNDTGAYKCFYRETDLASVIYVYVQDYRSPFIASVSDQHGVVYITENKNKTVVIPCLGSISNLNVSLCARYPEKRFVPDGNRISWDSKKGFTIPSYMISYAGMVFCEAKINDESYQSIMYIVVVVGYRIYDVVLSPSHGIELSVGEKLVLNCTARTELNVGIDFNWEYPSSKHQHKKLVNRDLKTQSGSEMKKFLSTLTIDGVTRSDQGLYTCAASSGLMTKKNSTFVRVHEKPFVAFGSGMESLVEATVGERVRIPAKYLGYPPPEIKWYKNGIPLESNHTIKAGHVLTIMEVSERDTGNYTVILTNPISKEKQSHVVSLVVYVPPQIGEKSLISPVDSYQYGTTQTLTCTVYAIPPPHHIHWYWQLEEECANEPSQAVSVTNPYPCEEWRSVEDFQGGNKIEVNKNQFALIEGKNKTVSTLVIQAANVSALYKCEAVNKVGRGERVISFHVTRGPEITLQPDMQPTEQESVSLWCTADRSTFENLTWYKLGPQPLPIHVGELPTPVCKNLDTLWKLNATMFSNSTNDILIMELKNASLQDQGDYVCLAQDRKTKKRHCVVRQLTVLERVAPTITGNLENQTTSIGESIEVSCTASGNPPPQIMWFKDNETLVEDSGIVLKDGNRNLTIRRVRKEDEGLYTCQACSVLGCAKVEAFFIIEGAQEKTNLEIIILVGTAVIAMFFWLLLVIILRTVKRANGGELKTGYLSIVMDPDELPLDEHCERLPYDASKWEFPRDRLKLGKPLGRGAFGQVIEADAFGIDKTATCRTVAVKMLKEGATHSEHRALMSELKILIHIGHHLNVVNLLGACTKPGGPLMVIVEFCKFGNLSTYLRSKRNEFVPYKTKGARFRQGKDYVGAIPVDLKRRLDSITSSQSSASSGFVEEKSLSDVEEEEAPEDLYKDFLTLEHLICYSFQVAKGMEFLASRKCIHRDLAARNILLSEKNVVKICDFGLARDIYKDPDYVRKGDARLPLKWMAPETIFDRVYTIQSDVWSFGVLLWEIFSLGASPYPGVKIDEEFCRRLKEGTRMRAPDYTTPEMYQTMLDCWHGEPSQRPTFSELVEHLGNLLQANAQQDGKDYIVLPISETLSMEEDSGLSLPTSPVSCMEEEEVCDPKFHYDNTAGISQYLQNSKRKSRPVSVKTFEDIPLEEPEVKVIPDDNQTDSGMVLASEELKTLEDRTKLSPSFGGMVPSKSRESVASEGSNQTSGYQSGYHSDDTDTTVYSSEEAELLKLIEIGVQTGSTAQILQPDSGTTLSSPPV

For `CNC(=O)c1cc2c(Oc3ccc(NC(=O)C4(C(=O)Nc5ccc(F)cc5OC(C)C)CC4)cc3F)ccnc2cc1OC` [Compound 269, 1-N-[3-Fluoro-4-[7-methoxy-6-(methylcarbamoyl)quinolin-4-yl]oxyphenyl]-1-N′-(4-fluoro-2-propan-2-yloxyphenyl)cyclopropane-1,1-dicarboxamide], the IC50 against AXL was in the range of 10 to 100 nM; at Met, 100 to 300 nM; against Mer, 10 to 100 nM; against KDR it was 10 to 100 nM.

For `CNC(=O)c1cc2c(Oc3ccc(NC(=O)C4(C(=O)Nc5ccc(F)cc5C5CC5)CC4)cc3F)ccnc2cc1OC` [Compound 270, 1-N′-(2-Cyclopropyl-4-fluorophenyl)-1-N-[3-fluoro-4-[7-methoxy-6-(methylcarbamoyl)quinolin-4-yl]oxyphenyl]cyclopropane-1,1-dicarboxamide], the IC50 on AXL, on Met, against Mer and on KDR was 10 to 100 nM in each case.

With `CNC(=O)c1cc2c(Oc3ccc(NC(=O)C4(C(=O)Nc5ccc(Cl)cc5)CC4)cc3F)ccnc2cc1OC` [Compound 274, 1-N-(4-Chlorophenyl)-1-N′-[3-fluoro-4-[7-methoxy-6-(methylcarbamoyl)quinolin-4-yl]oxyphenyl]cyclopropane-1,1-dicarboxamide], the IC50 was 10 to 100 nM on AXL, 10 to 100 nM at Met, no more than 10 nM against Mer and no more than 10 nM against KDR.

In the case of `CO/N=C/c1ccc2c(Oc3ccc(NC(=O)C4(C(=O)Nc5ccc(F)cc5)CC4)cc3)ccnc2c1` [Compound 278, 1-N′-(4-Fluorophenyl)-1-N-[4-[7-[(E)-methoxyiminomethyl]quinolin-4-yl]oxyphenyl]cyclopropane-1,1-dicarboxamide], the IC50 on AXL, at Met, against Mer and at KDR was 100 to 300 nM in each case.

`CNC(=O)Nc1cc2c(Oc3ccc(NC(=O)C4(C(=O)Nc5ccc(F)cc5)CC4)cc3)ccnc2cc1OC` [Compound 279, 1-N′-(4-Fluorophenyl)-1-N-[4-[7-methoxy-6-(methylcarbamoylamino)-quinolin-4-yl]oxyphenyl]cyclopropane-1,1-dicarboxamide]: the IC50 at AXL is no more than 10 nM; at Met it was 10 to 100 nM; against Mer it was no more than 10 nM; against KDR, no more than 10 nM.

As to `COC(=O)Nc1cc2c(Oc3ccc(NC(=O)C4(C(=O)Nc5ccc(F)cc5)CC4)cc3)ccnc2cc1OC` [Compound 280, Methyl N-[4-[4-[[1-[(4-fluorophenyl)carbamoyl]cyclopropane-carbonyl]amino]phenoxy]-7-methoxyquinolin-6-yl]carbamate], the half-inhibitory concentration (IC50) was no more than 10 nM on AXL, 10 to 100 nM at Met, no more than 10 nM against Mer and no more than 10 nM on KDR.

As to `CCc1noc(-c2cc3c(Oc4ccc(NC(=O)C5(C(=O)Nc6ccc(F)cc6)CC5)cc4)ccnc3cc2OC)n1` [Compound 283, 1-N-[4-[6-(3-Ethyl-1,2,4-oxadiazol-5-yl)-7-methoxyquinolin-4-yl]oxyphenyl]-1-N′-(4-fluorophenyl)cyclopropane-1,1-dicarboxamide Hydrochloride], the IC50 against AXL, on Met, at Mer and against KDR was 10 to 100 nM throughout.

With `CNC(=O)c1cc2nccc(Oc3ccc(NC(=O)C4(C(=O)Nc5ccc(F)cc5)CC4)cc3F)c2cc1C` [Compound 289, 1-N′-[3-Fluoro-4-[6-methyl-7-(methylcarbamoyl)quinolin-4-yl]oxyphenyl]-1-N-(4-fluorophenyl)cyclopropane-1,1-dicarboxamide], the IC50 at AXL, at Met, at Mer and on KDR was 10 to 100 nM throughout.

Take `CNC(=O)c1cc2nccc(Oc3cc(F)c(NC(=O)C4(C(=O)Nc5ccc(F)cc5)CC4)cc3F)c2cc1C` [Compound 290, 1-N′-[2,5-Difluoro-4-[6-methyl-7-(methylcarbamoyl)quinolin-4-yl]oxyphenyl]-1-N-(4-fluorophenyl)cyclopropane-1,1-dicarboxamide]: the IC50 against AXL is no more than 10 nM; on Met, no more than 10 nM; against Mer it was no more than 10 nM; at KDR, 100 to 300 nM.

Turning to `CNC(=O)c1cc2nccc(Oc3cc(Cl)c(NC(=O)C4(C(=O)Nc5ccc(F)cc5)CC4)cc3F)c2cc1C` [Compound 291, 1-N′-[2-Chloro-5-fluoro-4-[6-methyl-7-(methylcarbamoyl)quinolin-4-yl]oxyphenyl]-1-N-(4-fluorophenyl)cyclopropane-1,1-dicarboxamide], the IC50 is 10 to 100 nM against AXL, 10 to 100 nM on Met, 10 to 100 nM at Mer and greater than 300 nM at KDR.

As to `CNC(=O)c1cc2nccc(Oc3c(F)cc(NC(=O)C4(C(=O)Nc5ccc(F)cc5)CC4)c(F)c3F)c2cc1C` [Compound 292, 1-N-(4-Fluorophenyl)-1-N′-[2,3,5-trifluoro-4-[6-methyl-7-(methylcarbamoyl)quinolin-4-yl]oxyphenyl]cyclopropane-1,1-dicarboxamide], the IC50 against AXL is 10 to 100 nM; on Met, 10 to 100 nM; against Mer, 10 to 100 nM; on KDR it was greater than 300 nM.

For `Cc1cc2c(Oc3ccc(NC(=O)C4(C(=O)Nc5ccc(F)cc5)CC4)cc3F)ccnc2cc1C(N)=O` [Compound 293, 1-N′-[4-(7-Carbamoyl-6-methylquinolin-4-yl)oxy-3-fluorophenyl]-1-N-(4-fluorophenyl)cyclopropane-1,1-dicarboxamide], the IC50 against AXL, at Met, at Mer and at KDR was 10 to 100 nM throughout.

Consider `Cc1cc2c(Oc3cc(F)c(NC(=O)C4(C(=O)Nc5ccc(F)cc5)CC4)cc3F)ccnc2cc1C(N)=O` [Compound 294, 1-N′-[4-(7-Carbamoyl-6-methylquinolin-4-yl)oxy-2,5-difluorophenyl]-1-N-(4-fluorophenyl)cyclopropane-1,1-dicarboxamide], for which the IC50 on AXL is no more than 10 nM; on Met, no more than 10 nM; at Mer, no more than 10 nM; on KDR, 10 to 100 nM.

Consider `O=C(NOCCO)c1ccc2c(Oc3ccc(NC(=O)C4(C(=O)Nc5ccc(F)cc5)CC4)cc3F)ccnc2c1` [Compound 301, 1-N′-[3-Fluoro-4-[7-(2-hydroxyethoxycarbamoyl)quinolin-4-yl]oxyphenyl]-1-N-(4-fluorophenyl)cyclopropane-1,1-dicarboxamide], for which the IC50 against AXL, on Met, against Mer and against KDR was 10 to 100 nM in each case.

For the compound `O=C(NOCCO)c1ccc2c(Oc3cc(F)c(NC(=O)C4(C(=O)Nc5ccc(F)cc5)CC4)cc3F)ccnc2c1` [Compound 302, 1-N′-[2,5-Difluoro-4-[7-(2-hydroxyethoxycarbamoyl)quinolin-4-yl]oxyphenyl]-1-N-(4-fluorophenyl)cyclopropane-1,1-dicarboxamide], the IC50 was 10 to 100 nM against AXL, no more than 10 nM at Met, 100 to 300 nM at Mer and 100 to 300 nM at KDR.

For orientation: IC50 means the concentration needed to halve the response being measured.
